What was measured:
mouse portal vein = assay: Wire myography, relaxation of phenylephrine pre-constricted vein
Protocol: Mice were anaesthetised with isoflurane (5% induction and 1.5% maintenance) in 95% O2 according to Schedule 1 procedure approved by the UK Home Office. The portal vein was quickly dissected and placed in Krebs solution. The Krebs PV solution consisted of 118 mM NaCl, 4.7 mM KCl, 2.5 mM CaCl2, 1.2 mM KH2PO4, 1.2 mM MgSO4·7H2O, 25.2 mM NaHCO3 and 11.1 mM glucose. By means of a dissecting microscope, adhering perivascular tissue was carefully removed and the vein was cut into 1 mm segments.
Vein segments were mounted onto two thin stainless steel wires in an isometric myograph (Multi Wire Myograph System 620M from Danish Myograph Technology [DMT]), for which the force transducer was calibrated once per month according to the manufacturer's instructions. The recording chamber was filled with gassed Krebs solution (95% O2/5% CO2, pH 7.4). The segments were then stretched to a normalised internal diameter according to the manufacturer's instructions. The mounted rings were kept in a 5 ml chamber containing Krebs solution at 37°C and continuously bubbled with a gas mixture of 95% O2 and 5% CO2 (pH 7.4). After an equilibration period of 60 min, the contractile function of the vessel was tested by replacing the Krebs solution by 60 mM K^+ solution. Following washout, the vein was contracted once with 10 μM phenylephrine and then Yoda1, KC159 or KC289 was applied with the concentrations of 0.1 to 10 μM. The NOS inhibitor, L‐NAME, (100 μM), was pre‐incubated for 20 min before the PIEZO1 modulator.
Because the anticipated effect of test compounds was to cause vessel relaxation, phenylephrine was applied to induce tension and the maximum value of this tension was defined as 0% relaxation (no relaxation). The value of tension immediately prior to application of phenylephrine was defined as 100% relaxation. Data are normalised to these values because, otherwise, the intrinsic variability in the absolute amount of tension induced by phenylephrine obscured exploration of the relaxant effect of compounds.
OriginPro 2020 was used for the analysis of myography data. Myography traces show readings taken every 0.5 or 1 s and were smoothed with the Savitzky–Golay filter set to 70 points. To compare the agonistic activity of Yoda1 analogues, basal vessel tension prior to compound injection was subtracted. Maximal tension in the presence of PE alone was used to define 0% relaxation. The tension value prior to PE application was defined as 100% relaxation. Following the addition of test compounds, tension readings were taken at the last time point of the treatments and expressed as percentage relaxation.

hPIEZO1 [1] = molecular target: T1, hPIEZO1 (Homo sapiens, UniProt Q92508); assay: Pre-treatment with analogue before Yoda1 stimulus, Ca2+ assay in hPIEZO1-TREx cells; format: cell-based; conditions: for 2 μM Yoda1-evoked peak ΔCa2+i (ΔF340/380), median fold difference compared to DMSO pretreatment: hPIEZO1-TREx, 10 μM compound 30 min pretreatment before 2 μM Yoda1; for Inhibition of the action of Yoda1: hPIEZO1 channels, 10 μM for 30 min prior to Yoda1
T1 construct: expressed in transfected cells
T1 sequence (Q92508 whole entry): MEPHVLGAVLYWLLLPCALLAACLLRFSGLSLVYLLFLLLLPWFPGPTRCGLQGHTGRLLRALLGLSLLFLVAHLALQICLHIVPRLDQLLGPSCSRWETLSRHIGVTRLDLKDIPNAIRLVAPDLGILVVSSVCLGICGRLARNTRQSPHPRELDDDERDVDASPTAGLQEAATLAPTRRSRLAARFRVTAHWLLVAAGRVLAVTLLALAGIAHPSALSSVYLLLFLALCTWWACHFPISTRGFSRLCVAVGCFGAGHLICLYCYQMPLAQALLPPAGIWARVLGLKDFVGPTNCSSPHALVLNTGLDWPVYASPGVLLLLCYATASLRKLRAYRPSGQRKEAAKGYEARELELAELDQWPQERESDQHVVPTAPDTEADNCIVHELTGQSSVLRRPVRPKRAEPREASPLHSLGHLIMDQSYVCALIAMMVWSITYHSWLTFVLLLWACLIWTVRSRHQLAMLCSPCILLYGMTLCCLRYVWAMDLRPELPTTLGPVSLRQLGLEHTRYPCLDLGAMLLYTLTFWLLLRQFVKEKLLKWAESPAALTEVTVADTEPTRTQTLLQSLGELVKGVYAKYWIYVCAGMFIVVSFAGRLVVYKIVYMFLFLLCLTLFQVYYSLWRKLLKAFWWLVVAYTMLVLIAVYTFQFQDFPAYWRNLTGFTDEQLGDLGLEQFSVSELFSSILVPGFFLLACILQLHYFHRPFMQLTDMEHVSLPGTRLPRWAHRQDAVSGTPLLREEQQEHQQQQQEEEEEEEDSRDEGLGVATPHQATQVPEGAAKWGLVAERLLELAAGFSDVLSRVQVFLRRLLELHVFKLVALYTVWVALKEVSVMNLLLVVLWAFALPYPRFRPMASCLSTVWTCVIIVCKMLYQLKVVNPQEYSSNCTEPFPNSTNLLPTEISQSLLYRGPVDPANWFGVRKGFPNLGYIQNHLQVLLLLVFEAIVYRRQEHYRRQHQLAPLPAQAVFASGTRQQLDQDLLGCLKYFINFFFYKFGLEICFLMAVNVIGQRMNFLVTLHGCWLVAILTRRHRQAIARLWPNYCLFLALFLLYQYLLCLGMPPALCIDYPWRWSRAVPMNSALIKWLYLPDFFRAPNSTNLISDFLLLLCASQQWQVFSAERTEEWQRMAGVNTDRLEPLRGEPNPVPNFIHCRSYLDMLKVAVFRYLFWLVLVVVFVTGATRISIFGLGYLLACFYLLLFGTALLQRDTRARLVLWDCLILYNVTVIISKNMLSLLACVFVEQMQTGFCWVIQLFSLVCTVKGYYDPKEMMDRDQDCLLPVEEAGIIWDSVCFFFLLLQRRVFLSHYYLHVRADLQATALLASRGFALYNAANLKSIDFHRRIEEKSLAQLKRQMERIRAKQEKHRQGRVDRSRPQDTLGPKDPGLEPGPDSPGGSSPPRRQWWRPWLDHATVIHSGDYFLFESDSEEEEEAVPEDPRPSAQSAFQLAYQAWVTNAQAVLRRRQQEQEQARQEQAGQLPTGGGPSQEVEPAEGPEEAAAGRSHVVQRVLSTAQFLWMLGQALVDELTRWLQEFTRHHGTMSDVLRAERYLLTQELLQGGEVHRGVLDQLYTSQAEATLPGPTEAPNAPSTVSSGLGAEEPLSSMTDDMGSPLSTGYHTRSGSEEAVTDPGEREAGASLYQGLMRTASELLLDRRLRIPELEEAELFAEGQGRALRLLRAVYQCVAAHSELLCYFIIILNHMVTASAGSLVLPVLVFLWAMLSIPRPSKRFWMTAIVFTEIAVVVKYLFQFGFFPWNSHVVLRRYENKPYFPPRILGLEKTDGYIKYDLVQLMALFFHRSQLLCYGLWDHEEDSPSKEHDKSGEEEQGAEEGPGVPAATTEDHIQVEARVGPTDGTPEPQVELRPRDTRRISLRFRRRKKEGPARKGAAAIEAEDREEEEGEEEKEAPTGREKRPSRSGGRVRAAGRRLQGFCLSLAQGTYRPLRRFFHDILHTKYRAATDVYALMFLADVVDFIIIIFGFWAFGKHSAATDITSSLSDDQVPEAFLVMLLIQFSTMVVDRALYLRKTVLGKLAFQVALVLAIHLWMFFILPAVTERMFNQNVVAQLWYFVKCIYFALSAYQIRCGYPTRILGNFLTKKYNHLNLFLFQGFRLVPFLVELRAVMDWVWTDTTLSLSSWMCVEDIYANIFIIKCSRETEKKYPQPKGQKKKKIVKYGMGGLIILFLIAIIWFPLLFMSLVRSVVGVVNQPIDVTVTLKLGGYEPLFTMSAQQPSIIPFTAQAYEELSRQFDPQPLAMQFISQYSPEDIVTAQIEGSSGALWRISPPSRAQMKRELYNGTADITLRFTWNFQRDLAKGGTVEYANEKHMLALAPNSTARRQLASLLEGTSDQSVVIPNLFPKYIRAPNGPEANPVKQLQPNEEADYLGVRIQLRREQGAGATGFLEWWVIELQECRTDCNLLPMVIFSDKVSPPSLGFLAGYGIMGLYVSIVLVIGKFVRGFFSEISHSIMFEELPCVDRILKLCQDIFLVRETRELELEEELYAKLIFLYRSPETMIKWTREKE
Protocol: (§1) HEK 293‐TREx cells and their stably transfected derivatives or transiently transfected HEK 293 or HeLa cells were seeded at a density of 7.5 × 10^4 cells per well into poly‐D‐lysine‐coated 96‐well plates. The plates were either commercially pre‐coated with poly‐D‐lysine (Greiner Bio‐One #655946) or (Greiner Bio‐One #655090) were coated in‐house with 35 μl of a 10 μg·ml^−1 poly‐D‐lysine (Bio‐Techne, Cultrex # 3439‐100‐01) in sterile deionised water per well for at least 24 h and rinsed three times with 100 μl per well sterile D‐PBS before addition of cells. HUVECs were seeded into tissue culture‐treated 96‐well plates (Greiner Bio‐One #655090) at a density of either 2.5 × 10^4 cells 24 h before experimentation or 1.25 × 10^4 cells 48 h before experimentation. Cells were incubated with 2 μM Fura‐2‐AM (Molecular Probes™) in the presence of 0.01% (wt./vol.) pluronic F127 (Sigma‐Aldrich #P2443) in standard bath solution (SBS) for 1 h at 37°C. Cells were washed with SBS for 30 min at room temperature. Alternatively, if inhibitors were being tested, these were added at this time, immediately following a wash in SBS. (−)‐Englerin A (Akbulut et al., [2015]) was used in SBS containing 0.01% pluronic acid as a dispersing agent to minimise aggregation of compound. Unless otherwise stated, the final concentration of DMSO was 0.2% (vol./vol). Working 2000× stock solutions of test compounds were freshly made in DMSO and diluted 1000‐fold in SBS during the 30 min SBS wash/inhibitor pre‐incubation period to obtain 2× solutions for injection. When testing the highest concentration of Yoda1, KC159 and KC289 (30 μM), the final DMSO concentration was 0.6% (vol./vol.). Measurements were made at room temperature on a 96‐well fluorescence plate reader (FlexStation 3, Molecular Devices, Sunnyvale, CA, USA) controlled by SoftMax Pro software v7.0.3. Recipient wells containing 80 μl SBS/0.2% (vol./vol.) DMSO vehicle or inhibitor compound received 80 μl 2× compound at an injection rate of 1 μl·s^−1, and the pipette introduced liquids from a height setting of 70 μl. No trituration was performed. For recordings using Fura‐2, the change in intracellular Ca was indicated as the ratio of Fura‐2 emission (510 nm) intensities at 340 and 380 nm excitation. Photomultipliers were set to medium sensitivity. SBS contained 130 mM NaCl, 5 mM KCl, 8 mM D‐glucose, 10 mM HEPES, 1.2 mM MgCl2 and 1.5 mM CaCl2, and the pH was adjusted to 7.4 with NaOH. The solution was filtered through a 0.2 μm bottle‐top filter prior to use and handled aseptically thereafter.
In view of the effect of Dooku1 described above, we tested if there are inhibitory actions of the new Yoda1 analogues by pre‐treating cells at 10 μM for 30 min prior to adding 2 μM Yoda1 (Figures 9 and S9, SI 1). All except KC157 and KC161 inhibited the action of Yoda1 on hPIEZO1 channels (Figures 9a and S9, SI 1). […] KC159 and KC289 were agonists, and so they may inhibit the effect of Yoda1 simply by pre‐activating the channels. KC158, KC161 and KC162 are also agonists of mPIEZO1 channels (Figure 3). […] Only the 2‐benzoic acid analogue (KC157) lacks agonist or antagonist properties.

mPIEZO1 [2] = molecular target: T2, mPIEZO1 (Mus musculus, UniProt E2JF22); assay: Pre-treatment with analogue before Yoda1 stimulus, Ca2+ assay in mPIEZO1-TREx cells; format: cell-based; conditions: mPIEZO1-TREx, 10 μM compound 30 min pretreatment before 0.5 μM Yoda1
T2 construct: expressed in transfected cells
T2 sequence (E2JF22 whole entry): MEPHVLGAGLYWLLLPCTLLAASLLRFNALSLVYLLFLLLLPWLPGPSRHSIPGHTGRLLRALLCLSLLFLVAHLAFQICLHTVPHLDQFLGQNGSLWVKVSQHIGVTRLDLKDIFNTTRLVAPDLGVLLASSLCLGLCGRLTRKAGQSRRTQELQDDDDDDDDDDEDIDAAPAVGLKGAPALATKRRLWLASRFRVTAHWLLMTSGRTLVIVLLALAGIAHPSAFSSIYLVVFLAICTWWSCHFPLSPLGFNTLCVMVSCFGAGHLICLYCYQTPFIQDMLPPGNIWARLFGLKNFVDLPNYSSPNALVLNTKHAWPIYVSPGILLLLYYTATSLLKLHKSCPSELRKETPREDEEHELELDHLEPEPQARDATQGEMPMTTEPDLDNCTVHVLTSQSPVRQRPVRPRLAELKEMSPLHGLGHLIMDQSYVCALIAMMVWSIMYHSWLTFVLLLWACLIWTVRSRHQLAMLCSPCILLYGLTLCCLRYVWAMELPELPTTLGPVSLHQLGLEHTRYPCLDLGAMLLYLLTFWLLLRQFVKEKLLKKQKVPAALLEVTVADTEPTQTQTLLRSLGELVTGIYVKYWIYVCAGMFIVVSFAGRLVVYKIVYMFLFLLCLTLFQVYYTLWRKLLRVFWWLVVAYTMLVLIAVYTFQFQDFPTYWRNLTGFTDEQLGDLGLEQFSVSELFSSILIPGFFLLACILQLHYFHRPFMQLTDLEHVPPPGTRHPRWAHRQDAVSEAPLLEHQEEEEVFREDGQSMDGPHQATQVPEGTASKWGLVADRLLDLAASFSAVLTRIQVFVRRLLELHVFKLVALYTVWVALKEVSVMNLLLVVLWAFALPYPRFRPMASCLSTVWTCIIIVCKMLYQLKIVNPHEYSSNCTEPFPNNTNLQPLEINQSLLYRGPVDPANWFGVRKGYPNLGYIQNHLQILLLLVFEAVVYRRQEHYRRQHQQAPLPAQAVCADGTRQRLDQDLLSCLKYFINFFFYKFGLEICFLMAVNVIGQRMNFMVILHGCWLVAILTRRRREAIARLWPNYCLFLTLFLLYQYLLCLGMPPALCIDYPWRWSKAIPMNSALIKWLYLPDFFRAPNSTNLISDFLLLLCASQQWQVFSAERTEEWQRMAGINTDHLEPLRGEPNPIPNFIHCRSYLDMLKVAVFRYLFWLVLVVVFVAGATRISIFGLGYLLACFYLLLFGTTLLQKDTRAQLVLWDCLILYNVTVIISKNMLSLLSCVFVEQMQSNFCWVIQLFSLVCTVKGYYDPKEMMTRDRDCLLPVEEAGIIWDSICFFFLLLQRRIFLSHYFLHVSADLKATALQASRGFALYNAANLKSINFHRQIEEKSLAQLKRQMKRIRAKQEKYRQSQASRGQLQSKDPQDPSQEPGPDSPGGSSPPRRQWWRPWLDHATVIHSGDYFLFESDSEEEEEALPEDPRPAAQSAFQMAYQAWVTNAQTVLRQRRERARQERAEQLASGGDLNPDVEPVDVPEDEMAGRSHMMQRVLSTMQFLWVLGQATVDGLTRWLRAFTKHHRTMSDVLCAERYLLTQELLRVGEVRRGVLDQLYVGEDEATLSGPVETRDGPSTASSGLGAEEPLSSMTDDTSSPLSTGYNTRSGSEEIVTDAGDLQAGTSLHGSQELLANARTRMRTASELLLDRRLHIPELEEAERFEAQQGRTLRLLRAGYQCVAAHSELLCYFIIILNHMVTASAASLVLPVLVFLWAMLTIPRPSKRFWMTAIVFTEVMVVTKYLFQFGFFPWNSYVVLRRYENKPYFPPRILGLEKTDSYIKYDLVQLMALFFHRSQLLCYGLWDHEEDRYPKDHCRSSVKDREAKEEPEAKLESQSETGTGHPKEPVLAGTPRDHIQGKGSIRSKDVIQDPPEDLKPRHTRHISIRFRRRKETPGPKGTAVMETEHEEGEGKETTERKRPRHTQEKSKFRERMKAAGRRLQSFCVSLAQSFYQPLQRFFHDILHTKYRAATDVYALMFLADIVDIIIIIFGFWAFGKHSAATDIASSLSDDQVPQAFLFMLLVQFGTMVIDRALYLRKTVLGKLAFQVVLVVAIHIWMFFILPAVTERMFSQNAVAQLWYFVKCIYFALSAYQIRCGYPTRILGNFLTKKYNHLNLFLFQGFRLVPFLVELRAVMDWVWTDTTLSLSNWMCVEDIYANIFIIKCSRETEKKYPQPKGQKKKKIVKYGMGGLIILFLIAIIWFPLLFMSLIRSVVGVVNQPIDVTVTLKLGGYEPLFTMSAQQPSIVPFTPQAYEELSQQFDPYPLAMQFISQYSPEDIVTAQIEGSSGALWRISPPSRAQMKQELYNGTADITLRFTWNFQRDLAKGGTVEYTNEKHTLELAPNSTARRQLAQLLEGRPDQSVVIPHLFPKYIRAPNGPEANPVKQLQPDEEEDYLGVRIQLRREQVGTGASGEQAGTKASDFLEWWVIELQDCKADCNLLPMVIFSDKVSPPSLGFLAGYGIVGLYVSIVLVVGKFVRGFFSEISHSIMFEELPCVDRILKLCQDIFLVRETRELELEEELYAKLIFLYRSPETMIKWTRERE

mPIEZO1 [3] = molecular target: T2, mPIEZO1; assay: Intracellular Ca2+ measurement (Fura-2) in mPIEZO1-TREx cells; format: cell-based; conditions: for Peak ΔCa2+i (ΔF340/380), median fold difference compared to Yoda1: 10 μM compound, mPIEZO1-TREx cells, paired with 10 μM Yoda1; for Ca2+ response (agonist effect): 10 μM, cells overexpressing mPIEZO1, compared with Yoda1
From the text: HEK T‐REx™ cells that constitutively overexpress murine PIEZO1 were generated as previously described (Blythe et al., [2019]). pcDNA3 mouse PIEZO1 (mPIEZO1) IRES green fluorescent protein (GFP), a gift from Ardem Patapoutian (Coste et al., [2010]), was used as a template to clone the mPIEZO1 coding sequence into pcDNA4/TO. Overlapping mPIEZO1 (forward primer 5′‐[…]‐3′ and reverse primer 5′‐[…]‐3′) and pcDNA4/TO (forward primer 5′‐[…]‐3′ and reverse primer 5′‐[…]‐3′) PCR products were assembled using Gibson Assembly (New England Biolabs). […] HEK T‐REx™ 293 cells were transfected with pcDNA4/TO‐mPIEZO1 using Lipofectamine 2000 (Invitrogen) and treated with 200 μg·ml^−1 zeocin to select stably transfected cells. Individual clones were isolated and analysed for expression using Yoda1 and intracellular Ca^2+ measurements. These cells are referred to as mPIEZO1‐TREx.
as §1
For intracellular Ca^2+ (Ca^2+i) measurements, technical intra‐experiment replicates were used to improve confidence in the data. Analysis of individual experiments was performed to obtain mean ± SEM values. For collated analysis of independent experiments, where normal distributions were not evidenced by Shapiro–Wilk normality tests, non‐parametric distributions were assumed, and therefore, median values were used. […]

hPIEZO1 [4] = molecular target: T1, hPIEZO1; assay: Intracellular Ca2+ measurement (Fura-2) in hPIEZO1-TREx cells; format: cell-based; conditions: 10 μM compound, hPIEZO1-TREx cells, paired with 10 μM Yoda1
From the text: HEK T‐REx™ 293 cells (Thermo Fisher Cat #R71007, RRID:CVCL_D585) that overexpress hPIEZO1 upon induction with tetracycline were generated as previously described (Rode et al., [2017]). PIEZO1‐GFP was used as a PCR template to clone hPIEZO1 coding sequence into pcDNA™4/TO between HindIII and EcoRI restriction sites. PIEZO1 was amplified as two fragments using the following primers: (HindIII‐PIEZO1‐Fw: […] and BamHI‐Int.PIEZO1‐Rv: […]) and (BamHI‐Int. PIEZO1‐Fw: […] and EcoRI‐PIEZO1‐Rv: […]). The two fragments were fused using BamHI restriction site, resulting in the full‐length PIEZO1 coding sequence with the c4182a silent mutation. HEK T‐REx™ 293 cells (Invitrogen) were transfected with pcDNA4/TO‐PIEZO1 using Lipofectamine 2000 (Thermo Fisher Scientific). Subsequently, cells were treated with 10 μg·ml^−1 blasticidin and 200 μg·ml^−1 zeocin (InvivoGen) to select stably transfected cells. Single‐cell clones were isolated and analysed individually. Expression was induced by treating the cells for 24 h with 10 ng·ml^−1 tetracycline and analysed by quantitative RT‐PCR and Western blot. These cells are referred to as hPIEZO1‐TREx.
as §1
For intracellular Ca^2+ (Ca^2+i) measurements, technical intra‐experiment replicates were used to improve confidence in the data. Analysis of individual experiments was performed to obtain mean ± SEM values. […]

SMILES	Effect on responses to phenylephrine (mouse portal vein; 10 μM Dooku1)	Effect of pre-incubation on relaxations evoked by PIEZO1 agonists (mouse portal vein; 10 μM Dooku1 pre-incubation, 30 min)	2 μM Yoda1-evoked peak ΔCa2+i (ΔF340/380), median fold difference compared to DMSO pretreatment (hPIEZO1 [1]) [fold]	Inhibition of the action of Yoda1 (hPIEZO1 [1])	0.5 μM Yoda1-evoked peak ΔCa2+i (ΔF340/380), median fold difference compared to DMSO pretreatment (mPIEZO1 [2]) [fold]	Peak ΔCa2+i (ΔF340/380), median fold difference compared to Yoda1 (mPIEZO1 [3]) [fold]	Ca2+ response (agonist effect) (mPIEZO1 [3])	Peak ΔCa2+i (ΔF340/380), median fold difference compared to Yoda1 (hPIEZO1 [4]) [fold]
Clc1cccc(Cl)c1CSc1nnc(-c2ccc[nH]2)o1 [Dooku1, reference compound]	consistently inhibited responses to phenylephrine	reduces relaxations evoked by KC159 and KC289	–	–	–	–	–	–
O=C(O)c1cccc(-c2nnc(SCc3c(Cl)cccc3Cl)s2)c1 [KC158]	–	–	−3.8	inhibit the Yoda1 response	−4.9	−2.0	agonist effects	−11.7
NC(=O)c1ccc(-c2nnc(SCc3c(Cl)cccc3Cl)s2)cc1 [KC161]	–	–	–	–	−6.5	−3.8	agonist effects	−23.6
NC(=O)c1cccc(-c2nnc(SCc3c(Cl)cccc3Cl)s2)c1 [KC162]	–	–	−2.5	inhibit the Yoda1 response	−8.2	−3.7	agonist effects	−3.7

Reference: PMC10952572, “Improved PIEZO1 agonism through 4‐benzoic acid modification of Yoda1” (British Journal of Pharmacology, 2023)
